The values that follow come from patent US12264134B2 (Merck Sharp & Dohme LLC, priority 2018, dated 2025).

Sequence of IDO1 (P14902 whole entry): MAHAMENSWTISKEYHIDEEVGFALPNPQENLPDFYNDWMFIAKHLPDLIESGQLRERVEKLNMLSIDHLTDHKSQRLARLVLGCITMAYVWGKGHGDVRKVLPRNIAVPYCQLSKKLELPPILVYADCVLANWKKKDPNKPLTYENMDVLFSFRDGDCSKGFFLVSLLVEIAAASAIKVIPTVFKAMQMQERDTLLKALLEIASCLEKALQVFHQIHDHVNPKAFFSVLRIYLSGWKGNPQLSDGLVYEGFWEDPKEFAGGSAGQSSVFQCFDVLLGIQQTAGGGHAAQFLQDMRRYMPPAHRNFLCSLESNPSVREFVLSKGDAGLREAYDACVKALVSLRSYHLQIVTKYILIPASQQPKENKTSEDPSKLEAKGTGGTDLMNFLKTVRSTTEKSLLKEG

The assay concerns the target IDO1 (Homo sapiens, UniProt P14902). Briefly: IDO1 Cellular Assay in HeLa Cells Stimulated with IFNγ. It is filed as cell-based. As to conditions: read-out: HeLa Cell Potency, IC50. The method, then:
IDO1 Cellular Assay in HeLa Cells Stimulated with IFNγ
HeLa cells were cultured in complete HeLa culture medium (90% EMEM, 10% heat-inactivated fetal bovine serum) and expanded to about 1×10^9 cells. The cells were then collected and frozen down at 1×10^7 cells/vial in 1 mL frozen medium (90% complete HeLa culture medium, 10% DMSO).
Compounds to be tested were serially diluted in ten 3-fold steps in DMSO starting from 10 mM DMSO stocks in Echo low volume plate(s). Compound dilutions or DMSO alone were then dispensed from the dilution plate(s) into Greiner black 384-well assay plate(s) (catalog #781086, 50 nL/well) using an Echo 550 acoustic liquid handler (Labcyte).
Frozen HeLa cells were thawed and transferred into HeLa assay medium (99% complete HeLa culture medium, 1% Pen/Strep) with 20 mL medium/vial of cells. The cells were spun down at 250 g in a table top centrifuge for 5 min and suspended in same volume of HeLa assay medium. The cells were then counted and adjusted to a density of 2×10^5 cells/mL in HeLa assay medium. Sterile L-tryptophan were added to the cells with final concentration of 300 uM L-tryptophan. A small aliquot (2 mL/plate) of HeLa cells were set aside and were not treated with IFNγ, to serve as the Max-E control.
HeLa cells with and without IFNγ were dispensed to the respective wells of 384-well assay plates containing the compounds. The plates were incubated for about 48 hours at a 37° C., 5% CO2 incubator. Afterwards, 12 μL of 0.5 M methyl isonipecotate in dimethyl sulfoxide were added into each well and the plates were sealed and incubated at 37° C. without CO2 overnight. The plates were centrifuged for 1 min at 200×g. The resulting fluorescence was measured in a Spectramax plate reader (Molecular Devices) with a 400 nm excitation filter and a 510 nm emission filter.
The fluorescence intensity of each well was corrected for the background observed in wells with non-IFNγ-treated cells and was expressed as a fraction of the intensity observed in wells of IFNγ-treated cells and DMSO only. Potencies were calculated by linear least squares fit to the four parameter logistic IC50 equation.
For `Cc1cc(C#N)ccc1N1CCN(C(=O)Cn2nc(C(=O)N3C[C@@H](C)O[C@@H](C)C3)c3c2CCC3)CC1` [Example 26, 4-[4-[2-[3-[(2S,6R)-2,6-dimethylmorpholine-4-carbonyl]-5,6-dihydro-4H-cyclopenta[c]pyrazol-1-yl]acetyl]piperazin-1-ium-1-yl]-3-methyl-benzonitrile,2,2,2-trifluoroacetate], the IC50 was determined as 0.478 µM.

Regarding `COc1c(F)cc(N2CCN(C(=O)Cn3nc(C(=O)N4C[C@@H](C)O[C@@H](C)C4)c4c3CCC4)CC2)cc1F` [Example 27, 1-[4-(3,5-difluoro-4-methoxyphenyl)piperazin-1-yl]-2-{3-[(2R,6S)-2,6-dimethylmorpholine-4-carbonyl]-5,6-dihydrocyclopenta[c]pyrazol-1(4H)-yl}ethan-1-one], the IC50 amounted to 0.11 µM. Then `C[C@@H]1CN(C(=O)c2nn(CC(=O)N3CCN(c4ccc(F)cc4)CC3)c3c2CCC3)C[C@H](C)O1` [Example 28, 2-{3-[(2R,6S)-2,6-dimethylmorpholine-4-carbonyl]-5,6-dihydrocyclopenta[c]pyrazol-1(4H)-yl}-1-[4-(4-fluorophenyl)piperazin-1-yl]ethan-1-one], with 0.337 µM; and `COc1cccc(N2CCN(C(=O)Cn3nc(C(=O)N4C[C@@H](C)O[C@@H](C)C4)c4c3CCC4)CC2)c1` [Example 29, 2-{3-[(2R,6S)-2,6-dimethylmorpholine-4-carbonyl]-5,6-dihydrocyclopenta[c]pyrazol-1(4H)-yl}-1-[4-(3-methoxyphenyl)piperazin-1-yl]ethan-1-one], with 0.316 µM; and `C[C@@H]1CN(C(=O)c2nn(CC(=O)N3CCN(c4cc(F)cc(F)c4F)CC3)c3c2CCC3)C[C@H](C)O1` [Example 30, 2-{3-[(2R,6S)-2,6-dimethylmorpholine-4-carbonyl]-5,6-dihydrocyclopenta[c]pyrazol-1(4H)-yl}-1-[4-(2,3,5-trifluorophenyl)piperazin-1-yl]ethan-1-one], with 0.474 µM. Then `C[C@@H]1CN(C(=O)c2nn(CC(=O)N3CCN(c4ccc5c(c4)CCO5)CC3)c3c2CCC3)C[C@H](C)O1` [Example 31, 1-[4-(2,3-dihydro-1-benzofuran-5-yl)piperazin-1-yl]-2-{3-[(2R,6S)-2,6-dimethylmorpholine-4-carbonyl]-5,6-dihydrocyclopenta[c]pyrazol-1(4H)-yl}ethan-1-one], with 0.178 µM; and `C[C@@H]1CN(C(=O)c2nn(CC(=O)N3CCN(c4cccc(F)c4Cl)CC3)c3c2CCC3)C[C@H](C)O1` [Example 32, 1-[4-(2-chloro-3-fluorophenyl)piperazin-1-yl]-2-{3-[(2R,6S)-2,6-dimethylmorpholine-4-carbonyl]-5,6-dihydrocyclopenta[c]pyrazol-1(4H)-yl}ethan-1-one], with 0.117 µM; and `Cc1c(C#N)cccc1N1CCN(C(=O)Cn2nc(C(=O)N3C[C@@H](C)O[C@@H](C)C3)c3c2CCC3)CC1` [Example 33, 3-[4-({3-[(2R,6S)-2,6-dimethylmorpholine-4-carbonyl]-5,6-dihydrocyclopenta[c]pyrazol-1(4H)-yl}acetyl)piperazin-1-yl]-2-methylbenzonitrile], with 0.065 µM. Turning to `Cc1ccc(N2CCN(C(=O)Cn3nc(C(=O)N4C[C@@H](C)O[C@@H](C)C4)c4c3CCC4)CC2)cc1` [Example 34, 2-{3-[(2R,6S)-2,6-dimethylmorpholine-4-carbonyl]-5,6-dihydrocyclopenta[c]pyrazol-1(4H)-yl}-1-[4-(4-methylphenyl)piperazin-1-yl]ethan-1-one], the IC50 is 0.142 µM. The result for `C[C@@H]1CN(C(=O)c2nn(CC(=O)N3CCN(c4cccc(F)c4F)CC3)c3c2CCC3)C[C@H](C)O1` [Example 35, 1-[4-(2,3-difluorophenyl)piperazin-1-yl]-2-{3-[(2R,6S)-2,6-dimethylmorpholine-4-carbonyl]-5,6-dihydrocyclopenta[c]pyrazol-1(4H)-yl}ethan-1-one] reads 0.487 µM.

`COc1cc(F)cc(N2CCN(C(=O)Cn3nc(C(=O)N4C[C@@H](C)O[C@@H](C)C4)c4c3CCC4)CC2)c1` [Example 36, 2-{3-[(2R,6S)-2,6-dimethylmorpholine-4-carbonyl]-5,6-dihydrocyclopenta[c]pyrazol-1(4H)-yl}-1-[4-(3-fluoro-5-methoxyphenyl)piperazin-1-yl]ethan-1-one]: the IC50 amounted to 0.0555 µM. With `COc1cc(N2CCN(C(=O)Cn3nc(C(=O)N4C[C@@H](C)O[C@@H](C)C4)c4c3CCC4)CC2)ccc1C` [Example 37, 2-{3-[(2R,6S)-2,6-dimethylmorpholine-4-carbonyl]-5,6-dihydrocyclopenta[c]pyrazol-1(4H)-yl}-1-[4-(3-methoxy-4-methylphenyl)piperazin-1-yl]ethan-1-one], the IC50 turned out to be 0.234 µM. As to `COc1ccc(N2CCN(C(=O)Cn3nc(C(=O)N4C[C@@H](C)O[C@@H](C)C4)c4c3CCC4)CC2)c(C)c1` [Example 38, 2-{3-[(2R,6S)-2,6-dimethylmorpholine-4-carbonyl]-5,6-dihydrocyclopenta[c]pyrazol-1(4H)-yl}-1-[4-(4-methoxy-2-methylphenyl)piperazin-1-yl]ethan-1-one], the IC50 is 0.124 µM. The result for `COc1cccc(N2CCN(C(=O)Cn3nc(C(=O)N4C[C@@H](C)O[C@@H](C)C4)c4c3CCC4)CC2)c1F` [Example 39, 2-{3-[(2R,6S)-2,6-dimethylmorpholine-4-carbonyl]-5,6-dihydrocyclopenta[c]pyrazol-1(4H)-yl}-1-[4-(2-fluoro-3-methoxyphenyl)piperazin-1-yl]ethan-1-one] reads 0.374 µM; that for `Cc1cc(N2CCN(C(=O)Cn3nc(C(=O)N4C[C@@H](C)O[C@@H](C)C4)c4c3CCC4)CC2)cc(C)c1Cl` [Example 40, 1-[4-(4-chloro-3,5-dimethylphenyl)piperazin-1-yl]-2-{3-[(2R,6S)-2,6-dimethylmorpholine-4-carbonyl]-5,6-dihydrocyclopenta[c]pyrazol-1(4H)-yl}ethan-1-one], 0.223 µM. Then `Cc1cc(F)cc(N2CCN(C(=O)Cn3nc(C(=O)N4C[C@@H](C)O[C@@H](C)C4)c4c3CCC4)CC2)c1` [Example 41, 2-{3-[(2R,6S)-2,6-dimethylmorpholine-4-carbonyl]-5,6-dihydrocyclopenta[c]pyrazol-1(4H)-yl}-1-[4-(3-fluoro-5-methylphenyl)piperazin-1-yl]ethan-1-one], with 0.243 µM.

With `C[C@@H]1CN(C(=O)c2nn(CC(=O)N3CCN(c4ccc(Cl)cc4)CC3)c3c2CCC3)C[C@H](C)O1` [Example 42, 1-[4-(4-chlorophenyl)piperazin-1-yl]-2-{3-[(2R,6S)-2,6-dimethylmorpholine-4-carbonyl]-5,6-dihydrocyclopenta[c]pyrazol-1(4H)-yl}ethan-1-one], the IC50 was determined as 0.147 µM. The result for `Cc1cc(Cl)ccc1N1CCN(C(=O)Cn2nc(C(=O)N3C[C@@H](C)O[C@@H](C)C3)c3c2CCC3)CC1` [Example 43, 1-[4-(4-chloro-2-methylphenyl)piperazin-1-yl]-2-{3-[(2R,6S)-2,6-dimethylmorpholine-4-carbonyl]-5,6-dihydrocyclopenta[c]pyrazol-1(4H)-yl}ethan-1-one] reads 0.0348 µM. Then `C[C@@H]1CN(C(=O)c2nn(CC(=O)N3CCN(c4cc(F)c(F)cc4Cl)CC3)c3c2CCC3)C[C@H](C)O1` [Example 44, 1-[4-(2-chloro-4,5-difluorophenyl)piperazin-1-yl]-2-{3-[(2R,6S)-2,6-dimethylmorpholine-4-carbonyl]-5,6-dihydrocyclopenta[c]pyrazol-1(4H)-yl}ethan-1-one], with 0.26 µM; and `C[C@@H]1CN(C(=O)c2nn(CC(=O)N3CCN(c4ccc(F)c(F)c4)CC3)c3c2CCC3)C[C@H](C)O1` [Example 45, 1-[4-(3,4-difluorophenyl)piperazin-1-yl]-2-{3-[(2R,6S)-2,6-dimethylmorpholine-4-carbonyl]-5,6-dihydrocyclopenta[c]pryazol-1(4H)-yl}ethan-1-one], with 0.233 µM; and `Cc1cc(F)ccc1N1CCN(C(=O)Cn2nc(C(=O)N3C[C@@H](C)O[C@@H](C)C3)c3c2CCC3)CC1` [Example 46, 2-{3-[(2R,6S)-2,6-dimethylmorpholine-4-carbonyl]-5,6-dihydrocyclopenta[c]pyrazol-1(4H)-yl}-1-[4-(4-fluoro-2-methylphenyl)piperazin-1-yl]ethan-1-one], with 0.0452 µM.

In the case of `COc1ccc(N2CCN(C(=O)Cn3nc(C(=O)N4C[C@@H](C)O[C@@H](C)C4)c4c3CCC4)CC2)c(C)c1C` [Example 47, 2-{3-[(2R,6S)-2,6-dimethylmorpholine-4-carbonyl]-5,6-dihydrocyclopenta[c]pyrazol-1(4H)-yl}-1-[4-(4-methoxy-2,3-dimethylphenyl)piperazin-1-yl]ethan-1-one], the IC50 is 0.083 µM.

Broadly, the IC50 is the concentration at which inhibition is half-maximal.
